Measurements: paper PMC6149812, “Access to New Cytotoxic Quinone-Amino Acid Conjugates Linked through A Vinylic Spacer from 2-Acylnaphthoquinones and Methyl 3-Aminocrotonate” (Molecules : A Journal of Synthetic Chemistry and Natural …, 2017)
Read-outs that look alike come from different tables or passages of the source.

Assays:
[1] = tested on: AGS human gastric adenocarcinoma cells; assay: MTT reduction cytotoxicity assay, 72 h drug exposure, AGS; type: cell-based; conditions: human gastric adenocarcinoma cell line, 72 h exposure, average of six determinations, read-out: IC50 ± SEM, AGS
[2] = tested on: SK-MES-1 human lung cancer cells; assay: MTT reduction cytotoxicity assay, 72 h drug exposure, SK-MES-1; type: cell-based; conditions: 72 h exposure, average of six determinations, read-out: IC50 ± SEM, SK-MES-1
[3] = tested on: J82 human bladder carcinoma cells; assay: MTT reduction cytotoxicity assay, 72 h drug exposure, J82; type: cell-based; conditions: human bladder carcinoma cell line, 72 h exposure, average of six determinations, read-out: IC50 ± SEM, J82
[4] = tested on: MRC-5 normal human lung fibroblasts; conditions: for IC50: read-out: IC50 ± SEM, MRC-5, normal human lung fibroblasts, 72 h exposure, MTT, average of six determinations
Method: (§1) Cytotoxic activities of the compounds are expressed in terms of IC50. Etoposide, a clinically used anticancer agent, was taken as a positive control.
(§2) Media were supplemented with 10% heat-inactivated fetal bovine serum (FBS), 100 IU/mL penicillin and 100 μg/mL streptomycin and cell cultures were kept in a humidified incubator with 5% CO2 in air at 37 °C. For the cytotoxicity experiments, cells were seeded into 96-well plates at a density of 50,000 cells/mL. After reaching confluence, cells were incubated for three days with compounds at varied concentrations ranging from 0 up to 100 μM while untreated cells (medium containing 1% DMSO) were used as controls. Cytotoxicity was assessed using the MTT (3-(4,5-dimethylthiazol-2-yl)-2,5-diphenyltetrazolium bromide) reduction assay. […] Values were the means of six replicates for each concentration and transformed to percentage of controls.

[5] = MTT reduction cytotoxicity assay, 72 h drug exposure, cell line panel of Table 3; type: cell-based; conditions: human, summary range over the cell lines of Table 3, 72 h exposure, read-out: cytotoxic activities, range of IC50 over Table 3
Method: Finally, HL-60 cells were grown in RPMI medium.

[6] = tested on: MRC-5 normal human lung fibroblasts; assay: cells; conditions: MRC5, 72 h, read-out: IC50 ± SEM, MRC-5
Method: as §1, §2

[7] = SK-MES-1, human lung cancer cell line

| melting point | Molecule | IC50 [1] | IC50 ([2]; human lung cancer cell line) | IC50 [3] | IC50 [4] | IC50 [2, 7] | IC50 at 72 h [5] | IC50 [6] | cytotoxicity relative to etoposide on normal human lung fibroblasts cells [4] |
| --- | --- | --- | --- | --- | --- | --- | --- | --- | --- |
| – | Methyl (R,Z)-2-(3-benzoyl-1,4-dioxo-1,4-dihydronaphthalen-2-yl)-3-[(1-methoxy-1-oxo-3-phenylpropan-2-yl)amino]-but-2-enoate [Compound 10] | 30.7 ± 1.5 µM | 34.2 ± 2.3 µM | 23 ± 0.7 µM | 46.7 ± 2.9 µM | – | – | – | – |
| 217 to 218 °C | COC(=O)/C(C1=C(C(=O)c2ccccc2)C(=O)c2ccccc2C1=O)=C(/C)N[C@@H](C)C(=O)OC [Compound 6, Methyl (S,Z)-2-(3-benzoyl-1,4-dioxo-1,4-dihydronaphthalen-2-yl)-3-[(1-methoxy-1-oxopropan-2-yl)amino]-but-2-enoate] | 52.7 ± 3.7 µM | – | 37.1 ± 2.2 µM | – | 47.8 ± 3.3 µM | 4.5 to 53.4 µM | 58 ± 4.1 µM | – |
| – | Methyl (R,Z)-2-(3-butyryl-1,4-dioxo-1,4-dihydronaphthalen-2-yl)-3-[(1-methoxy-1-oxo-3-phenylpropan-2-yl)amino]-but-2-enoate [Compound 12] | 12.8 ± 0.7 µM | 15.9 ± 0.9 µM | 14 ± 0.6 µM | 21.8 ± 1.5 µM | – | – | – | – |
| – | COC(=O)/C(C1=C(C(=O)c2ccccc2)C(=O)c2ccccc2C1=O)=C(/C)N[C@H](C)C(=O)OC [Compound 7, Methyl (R,Z)-2-(3-benzoyl-1,4-dioxo-1,4-dihydronaphthalen-2-yl)-3-[(1-methoxy-1-oxopropan-2-yl)amino]-but-2-enoate] | 20.5 ± 1.1 µM | – | 35.6 ± 1.4 µM | – | 53.4 ± 4.3 µM | 4.5 to 53.4 µM | 17.4 ± 0.7 µM | – |
| 236.5 to 238.5 °C | COC(=O)C1=C(C)N(CCO)C(O)(c2ccccc2)C2=C1C(=O)c1ccccc1C2=O (stereo not shown) [Compound 5b, Methyl 1-hydroxy-2-(2-hydroxyethyl)-3-methyl-5,10-dioxo-1-phenyl-1,2,5,10-tetrahydrobenzo[g] isoquinoline-4-carboxylate] | – | – | – | – | – | – | – | – |
| – | COc1cc([C@@H]2c3cc4c(cc3[C@@H](O[C@@H]3O[C@@H]5CO[C@@H](C)O[C@H]5[C@H](O)[C@H]3O)[C@H]3COC(=O)[C@H]23)OCO4)cc(OC)c1O [Ref., etoposide, reference compound] | 0.4 µM | – | 3.3 ± 0.2 µM | – | 2.9 ± 0.2 µM | – | 2.2 ± 0.1 µM | – |
| 222.5 to 224.5 °C | COC(=O)/C(C1=C(C(=O)c2ccccc2)C(=O)c2ccccc2C1=O)=C(/C)N[C@@H](CC(C)C)C(=O)OC [Compound 8, Methyl (Z)-[3-(3-benzoyl-1,4-dioxo-1,4-dihydronaphthalen-2-yl)-4-methoxy-4-oxobut-2-en-2-yl]-L-leucinate] | 26.9 ± 1.5 µM | – | 12.9 ± 0.9 µM | – | 34.5 ± 1.7 µM | 4.5 to 53.4 µM | 26.6 ± 1.3 µM | – |
| – | Methyl (S,Z)-3-[(3-(1H-indol-3-yl)-1-methoxy-1-oxopropan-2-yl)amino]-2-(3-hexanoyl-1,4-dioxo-1,4-dihydronaphthalen-2-yl)but-2-enoate [Compound 14] | 9.3 ± 0.6 µM | 5.5 ± 0.2 µM | 4.5 ± 0.2 µM | 22.1 ± 1.6 µM | – | – | – | ten times lower |
| – | Methyl (S,Z)-3-[(3-(1H-indol-3-yl)-1-methoxy-1-oxopropan-2-yl)amino]-2-(3-benzoyl-1,4-dioxo-1,4-dihydronaphthalen-2-yl)-but-2-enoate [Compound 11] | 10.1 ± 0.1 µM | 18.9 ± 0.5 µM | 21.4 ± 0.8 µM | 13 ± 0.8 µM | – | – | – | – |
| – | Methyl (S,Z)-2-(3-benzoyl-1,4-dioxo-1,4-dihydronaphthalen-2-yl)-3-[(1-methoxy-1-oxo-3-phenylpropan-2-yl)amino]-but-2-enoate [Compound 9] | 19.3 ± 1.5 µM | 39.3 ± 1.6 µM | 22 ± 1.1 µM | 33.3 ± 2.2 µM | – | – | – | – |
| 215 to 217 °C | COC(=O)C1=C(C)N(CCO)C(C)(O)C2=C1C(=O)c1ccccc1C2=O (stereo not shown) [Compound 5a, Methyl 1-hydroxy-2-(2-hydroxyethyl)-1,3-dimethyl-5,10-dioxo-1,2,5,10-tetrahydrobenzo[g]isoquinoline-4-carboxylate] | – | – | – | – | – | – | – | – |
| – | CCCCCC(=O)C1=C(/C(C(=O)OC)=C(\C)N[C@@H](CC(C)C)C(=O)OC)C(=O)c2ccccc2C1=O [Compound 13, Methyl (Z)-[3-(3-hexanoyl-1,4-dioxo-1,4-dihydronaphthalen-2-yl)-4-methoxy-4-oxobut-2-en-2-yl]-L-leucinate] | 17 ± 1.1 µM | – | 23.5 ± 1.6 µM | – | 21.6 ± 1.3 µM | 4.5 to 53.4 µM | 24.9 ± 0.7 µM | – |
